According to the supplement of paper PMC8671470:

Experiments:
Conditions in all cases: 72 h
KU-812 [1] = test: cell viability (% survival relative to DMSO control, bortezomib = 0%); higher = less cytotoxic
Method in brief: (§1)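 After 72 h at 37 °C with 5% CO2, cell viability in 384-well plates was measured by CellTiter-Glo luminescence. The plates held compounds pre-printed at 1, 10, 100, 1000 or 10000 nM in duplicate, and cells from 10 AML and 5 CML lines seeded at densities titrated to linear growth. Percent survival is the duplicate mean, normalised to vehicle as 100% and a 10 µM positive control as 0%.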

LAMA-84 [2] = test: as above
Method in brief: as §1

NOMO-1 [3] = test: as above
Method in brief: as §1

BV-173 [4] = test: as above
Method in brief: as §1

MV4-11 [5] = test: as above
Method in brief: as §1

K-562 [6] = test: as above
Method in brief: as §1

KG-1 [7] = test: as above
Method in brief: as §1

ML-2 [8] = test: as above
Method in brief: as §1

KCL-22 [9] = test: as above
Method in brief: as §1

THP-1 [10] = test: as above
Method in brief: as §1

HL-60 [11] = test: as above
Method in brief: as §1

MOLM-13 [12] = test: as above
Method in brief: as §1

HL-60 [13] = test: cell viability (% survival relative to DMSO control); higher = less cytotoxic
Method in brief: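 For each screen, HL-60 cells in RPMI 1640 with 10% FBS carried either DMSO or 100 nM of one of three metabolic inhibitors while the full library was applied at five tenfold concentrations, 1–10,000 nM, in duplicate. Plates were 384-well and were kept 72 h at 37 °C, 5% CO2. Viability, measured by CellTiter-Glo, was normalised to wells with DMSO and with 10 μM proteasome inhibitor. Where area under the curve appears, it was fitted by four-parameter log-logistic models in drc and PharmacoGx.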

HEL = system: HEL
Method in brief: (§2)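 The IC50 was derived from log-logistic dose–response fitting. Each of fifteen myeloid leukaemia cell lines, seeded in RPMI 1640 within its linear growth range, was exposed in 384-well plates to five tenfold doses (1 to 10,000 nM) in duplicate for 72 h at 37 °C and 5% CO2. Luminescent ATP viability readings were normalised to vehicle and to a positive control at 10 µM before four-parameter curve fitting.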

KU-812 [14] = system: KU-812
Method in brief: as §2

SHI-1 = system: SHI-1
Method in brief: as §2

LAMA-84 [15] = system: LAMA-84
Method in brief: as §2

NOMO-1 [16] = system: NOMO-1
Method in brief: as §2

Mono-Mac-6 = system: Mono-Mac-6
Method in brief: as §2

BV-173 [17] = system: BV-173
Method in brief: as §2

MV4-11 [18] = system: MV4-11
Method in brief: as §2

K-562 [19] = system: K-562
Method in brief: as §2

KG-1 [20] = system: KG-1
Method in brief: as §2

ML-2 [21] = system: ML-2
Method in brief: as §2

KCL-22 [22] = system: KCL-22
Method in brief: as §2

THP-1 [23] = system: THP-1
Method in brief: as §2

HL-60 [24] = system: HL-60
Method in brief: as §2

MOLM-13 [25] = system: MOLM-13
Method in brief: as §2

O=C(O)CCCCC(CCSCc1ccccc1)SCc1ccccc1 (stereo not given) [CPI-613]
cell viability [%]
Conditions | 1 nM | 10 nM | 100 nM | 1000 nM | 10000 nM
BV-173 [4] | 89 | 97.3 | 91.1 | 94.4 | 93.8
HL-60 [11] | 107 | 111 | 110 | 87.9 | 101
K-562 [6] | 94 | 90.4 | 102 | 89.2 | 107
KCL-22 [9] | 110 | 108 | 105 | 115 | 97.2
KG-1 [7] | 92.4 | 99.7 | 103 | 96.5 | 93.6
KU-812 [1] | 98.9 | 94.3 | 99.6 | 105 | 89.7
LAMA-84 [2] | 106 | 98.3 | 96.5 | 96.8 | 97.5
ML-2 [8] | 89.7 | 94.3 | 103 | 98.2 | 95.8
MOLM-13 [12] | 93.6 | 99 | 98.5 | 75.5 | 94.5
MV4-11 [5] | 107 | 90.5 | 96.6 | 93 | 105
NOMO-1 [3] | 101 | 95.2 | 98.2 | 100 | 97.2
THP-1 [10] | 102 | 90.1 | 96.2 | 93.7 | 97.3

cell viability [%], HL-60 [13]
Conditions | 0.001 µM | 0.01 µM | 0.1 µM | 1 µM | 10 µM
co-treatment: AZD3965 100 nM | 102 | 97.3 | 98.6 | 104 | 105
co-treatment: DMSO vehicle | 98.6 | 101 | 95.2 | 103 | 108
co-treatment: GSK2194069 100 nM | 97.55 | 101 | 89.4 | 104 | 107.3
co-treatment: pictilisib 100 nM | 105 | 98.8 | 88.5 | 103 | 107

Conditions | IC50 (cell viability) [µM]
BV-173 [17] | > 10
HEL | > 10
HL-60 [24] | > 10
K-562 [19] | > 10
KCL-22 [22] | > 10
KG-1 [20] | > 10
KU-812 [14] | > 10
LAMA-84 [15] | > 10
ML-2 [21] | > 10
MOLM-13 [25] | > 10
MV4-11 [18] | > 10
Mono-Mac-6 | > 10
NOMO-1 [16] | > 10
SHI-1 | > 10
THP-1 [23] | > 10

CC(C)c1cc2c(c(O)c1O)[C@@]1(C(=O)O)CCCC(C)(C)[C@@H]1CC2 [Carnosic acid]
cell viability [%]
Conditions | 1 nM | 10 nM | 100 nM | 1000 nM | 10000 nM
BV-173 [4] | 87.5 | 96.7 | 98.2 | 82.6 | 43.8
HL-60 [11] | 99.7 | 97.3 | 89.3 | 91.5 | 109
K-562 [6] | 105 | 93.4 | 89.4 | 87.4 | 83.2
KCL-22 [9] | 101 | 104 | 73.1 | 103 | 90.7
KG-1 [7] | 92.4 | 96 | 96 | 104 | 103
KU-812 [1] | 94.3 | 100 | 89.4 | 92.6 | 74.1
LAMA-84 [2] | 97.7 | 98 | 102 | 91.1 | 96.6
ML-2 [8] | 93.4 | 105 | 85.9 | 94.5 | 67.6
MOLM-13 [12] | 101 | 120 | 84.7 | 124 | 106
MV4-11 [5] | 98.5 | 103 | 93.5 | 91.7 | 79.9
NOMO-1 [3] | 96.5 | 100 | 96.9 | 99 | 102
THP-1 [10] | 98.3 | 101 | 109 | 83.9 | 66.9

cell viability [%], HL-60 [13]
Conditions | 0.001 µM | 0.01 µM | 0.1 µM | 1 µM | 10 µM
co-treatment: AZD3965 100 nM | 98.3 | 101 | 117 | 98.58 | 100
co-treatment: DMSO vehicle | 96.16 | 100.2 | 99.2 | 97.53 | 103
co-treatment: GSK2194069 100 nM | 101 | 89.4 | 105 | 99.3 | 95.3
co-treatment: pictilisib 100 nM | 93.2 | 102 | 97.6 | 96.1 | 116

Conditions | IC50 (cell viability) [µM]
BV-173 [17] | 5.01
HEL | > 10
HL-60 [24] | > 10
K-562 [19] | > 10
KCL-22 [22] | > 10
KG-1 [20] | > 10
KU-812 [14] | > 10
LAMA-84 [15] | > 10
ML-2 [21] | > 10
MOLM-13 [25] | > 10
MV4-11 [18] | > 10
Mono-Mac-6 | > 10
NOMO-1 [16] | > 10
SHI-1 | > 10
THP-1 [23] | > 10
